Experimental data from patent US20130217615A1, “COMBINATION TREATMENT OF MAJOR DEPRESSIVE DISORDER” (SHIRE LLC, priority 2010, published 2013).
“Also recorded” adds a separate entry of the source.

What was measured:
[1] = system: major depressive disorder (MDD); test: Multicenter, randomized, double-blind, placebo-controlled study of LDX (Vyvanse) as augmentation to escitalopram: efficacy (MADRS, HAM-D17, QIDS-SR, CGI); assay type: in vivo, human; conditions: for HAM-D17 change in total score, LS mean change (90% CI): week 8 to 14
Description: In this investigational 14-week, double-blind, randomized, placebo-controlled study (n=246), Vyvanse or placebo was administered orally as an adjunctive therapy to adults between the ages of 18 and 55, who experienced residual depressive symptoms following treatment with 20 mg/day escitalopram/LEXAPRO® (prospective 8-week period). Residual depressive symptoms were defined as 17—Item Hamilton Rating Scale for Depression (HAM-D 17) score at the end of this prospective phase (n=177). In the double blind 6-week period, those with residual depressive symptoms were randomized to receive escitalopram plus either placebo or Vyvanse (dose range of 20 to 50 mg per day) on a 1:1 basis.
The primary study endpoint was the mean change in the total MADRS score in non-remitters after 6 weeks of blinded treatment. Non-remitters were defined as having a total Montgomery-Asberg Depression Rating Scale (MADRS) score>10 at randomization, following 8 weeks of escitalopram treatment (n=129). The key secondary outcome was the Sheehan Disability Scale (SDS). Both the MADRS and SDS are well-validated and widely used assessments in MDD research; the MADRS provides evidence of symptomatic improvement while the SDS reflects the functional impact of the symptomatic improvement. The significance level was prospectively set at 10%.
This was a multicenter, randomized, double-blind, parallel-group, placebo-controlled study in participants with major depressive disorder (MDD) conducted at 15 sites in the United States from July 2009 to August 2010. The study had 4 phases: screening and washout (if necessary), 8 weeks of open-label escitalopram oxalate, 6 weeks of double-blind LDX treatment as augmentation therapy to escitalopram, and a safety follow-up.
Eligible participants were adults (18-55 y) with a primary diagnosis of nonpsychotic MDD according to the Structured Clinical Interview for the Diagnostic and Statistical Manual of Mental Disorders, Fourth Edition—Text Revision™ disorders—Axis I (SCID-I) (American Psychiatric Association (Diagnostic and Statistical Manual of Mental Disorders, Fourth Edition Text Revision, Washington D.C., American Psychiatric Association, 2000). Diagnosis was confirmed using Module A of the Mini-International Psychiatric Interview (MINI). Participants not receiving antidepressants at screening were required to have a baseline Hamilton Rating Scale for Depression-17 items (HAM-D17) score 22; those receiving antidepressants at screening had to have a HAM-D17 score 0 and not to have achieved remission based on investigator opinion following at least 6 weeks of treatment. Women of childbearing age were required to be nonpregnant/nonlactating and on adequate contraception. Permitted concomitant therapies included hormonal therapy, thyroid medication, […], bronchodilator inhalers, nonsedating antihistamines, antibiotics, and over the counter medications not affecting blood pressure (BP), heart rate, or the central nervous system.
After screening/washout, participants underwent 8 weeks of open-label escitalopram monotherapy (10 mg/d at week 1; 20 mg/d thereafter). At week 8 (the augmentation baseline), those with a tolerable safety profile and residual MDD symptoms, defined as a HAM-D17 score were randomized 1:1 to receive LDX or placebo in a 6-week double-blind phase. Participants were stratified by baseline remission status (escitalopram remitters: Montgomery-Asberg Depression Rating Scale [MADRS] total score 10; escitalopram nonremitters: MADRS score >10) to enhance between-treatment balance. Treatment with LDX was initiated at 20 mg/d. The dose was increased weekly, first to 30 mg/d and then to 50 mg/d, during the dose-optimization period. Investigators could increase the dose through week 10 and decrease the dose (only once per participant) at any time; the LDX dose at week 11 was maintained through study endpoint (week 14/final study visit). […]

[2] = Same study, double-blind augmentation phase: safety (TEAEs, C-SSRS, vital signs, ECG, weight/BMI, laboratory); assay type: in vivo, human
Description: Adverse events (AEs) were collected during the study and coded using the Medical Dictionary for Regulatory Activities, Version 11.1. Treatment-emergent AEs (TEAEs) were defined as AEs that started or deteriorated on or after the date of the first dose of study drug during the double-blind treatment phase and no later than 3 days following the last dose of study drug. The incidence of TEAEs of special interest, including psychiatric (psychosis/mania, suicide, aggression, or other) and nonpsychiatric (weight, clinical laboratory [liver enzymes], vital signs, and sexual dysfunction) was also assessed. Vital signs (sitting SBP and DBP, pulse, and sitting respiratory rate), and Columbia-Suicide Severity Rating Scale (C-SSRS; Posner K, Brent D, Lucas C, et al.) a semistructured interview assessing the occurrence, severity, and frequency of suicide-related thoughts and behaviors) were measured at screening and all study visits. Laboratory assessments were conducted at screening, week 8, week 11, and study endpoint; physical examinations were conducted at screening, week 8, and study endpoint.
Safety analyses during double-blind treatment were performed on the randomized safety analysis set (all participants who took dose of randomized augmentation treatment and had safety assessment after treatment initiation). AEs, vital signs, weight and body mass index (BMI), electrocardiograms (ECG) findings, laboratory results, and C-SSRS results were descriptively summarized.

[3] = system: major depressive disorder (MDD); conditions: augmentation of standard antidepressant treatment; cited from earlier work
[4] = escitalopram nonremitters, study endpoint
[5] = Visit 13 (week 14) / study endpoint
[6] = adjunctive therapy with escitalopram
[7] = double-blind augmentation phase, n = 88

With `C[C@@H](Cc1ccccc1)NC(=O)[C@@H](N)CCCCN` [LDX, N-[(1S)-1-methyl-2-phenylethyl]-L-lysinamide] the “improvement compared to placebo on the mean total MADRS” value ([1]; 'per protocol' analysis of non-remitting subjects, after 6 weeks, adjunctive to escitalopram 20 mg/day) was −2.2, the “HAM-D17 50% decrease at week 14” value ([1]; all randomized participants) was 62 (70.5) n (%) and the “HAM-D17 total score ≦10 at week 14” value ([1]; all randomized participants) was 37 (42.0) n (%). The “MADRS 50% decrease at week 14” value ([1]; all randomized participants) was 64 (72.7) n (%), the “MADRS total score ≦10 at week 14” value ([1]; all randomized participants) was 52 (59.1) n (%) and the “QIDS-SR change in total score, LS mean change (90% CI)” value ([1]; all randomized participants (n = 85)) was −2.5 (−3.1, −1.8). The “HAM-D17 change in total score, LS mean change (90% CI)” value ([1]; all randomized participants) was −3.9 (−5.0, −2.9), the “MADRS change in total score, LS mean change (90% CI)” value ([1]; all randomized participants, week 8 to week 14) was −4.8 (−6.3, −3.4) and the “MADRS items related to appetite, sleep, or thoughts of self-harm” value ([1]; analysis of MADRS items) was “no significant worsening”. For the same compound, the “MADRS items showing improvement” value ([1]; analysis of MADRS items, all p≦0.08) was “improvement present in domains of mood, concentration, interest, and motivation”, the “adjusted effect size of MADRS total scores for LDX vs placebo” value ([1]; at endpoint) was −0.3 and the “HAM-D17 50% decrease at week 14” value ([1]; escitalopram nonremitters) was 41 (63.1) n (%). For the same compound, the “HAM-D17 total score ≦10 at week 14” value ([1]; escitalopram nonremitters) was 21 (32.3) n (%), the “MADRS 50% decrease at week 14” value ([1]; escitalopram nonremitters) was 43 (66.2) n (%) and the “MADRS total score ≦10 at week 14” value ([1]; escitalopram nonremitters) was 32 (49.2) n (%). The “MDD symptoms vs placebo, clinician-assessed and patient self-reported measures” value ([1]; escitalopram nonremitters) was “improved MDD symptoms vs placebo”, the “QIDS-SR change in total score, LS mean change (90% CI)” value ([1]; escitalopram nonremitters (n = 63)) was −2.4 (−3.1, −1.6) and the “proportion achieving MADRS remission (total score ≦10)” value [1, 4] was 49.2%. For the same compound, the “proportion achieving a 25% decrease in MADRS total score” value [1, 4] was 89.2%, the “proportion of participants with a 50% decrease in MADRS total score” value [1, 4] was 66.2% and the “HAM-D17 change in total score, LS mean change (90% CI)” value ([1]; escitalopram nonremitters) was −4.9 (−6.0, −3.9). The “self-assessed MDD symptoms” value ([1]; escitalopram remitters) was “improved self-assessed MDD symptoms”, the “primary or secondary efficacy outcome measures, LDX vs placebo” value ([1]; escitalopram remitters, augmentation baseline and study endpoint) was “no significant differences; also recorded: no treatment differences” and the “all MADRS outcomes, LDX versus placebo” value ([1]; full analysis set (FAS)) was “numerically greater improvement”. The “endpoint LS mean difference between Vyvanse and placebo, total MADRS” value ([1]; subjects with total MADRS score >10 and <50% improvement in total MADRS score, adjunctive to escitalopram) was −3.9, the “LS mean (90% CI) change in QIDS-SR total scores at week 14” value ([1]; table footnote, printed as escitalopram nonremitters (P = .0852)) was “For escitalopram nonremitters, LS mean (90% CI) change in QIDS-SR total scores at week 14 were −1.9 (−2.9, −0.9) and −0.4 (−1.4, −0.5) for those taking LDX and placebo, respectively (P = .0852)” and the “CGI-S: proportion of patients with a response ranging from no illness to mild illness” value ([1]; week 14) was “However, CGI-S scores at week 14 showed a numerically greater proporation of patients had a response ranging from no illness, to mild illness, with LDX (88.9%) vs placebo (61.3%)”. The “adverse effects beyond those previously seen” value ([2]; LDX with escitalopram) was “No significant adverse effects were seen that went beyond those previously seen with escitalopram and LDX”, the “increases in blood pressure and pulse rate” value ([2]; LDX with escitalopram) was “generally were small and consistent with product labeling” and the “BMI, mean (SD) change from augmentation baseline” value ([2]; Visit 13 (week 14)) was −0.4 (0.70) kg/m^2. For the same compound, the “ECG HR, mean (SD) change from augmentation baseline” value ([2]; Visit 13 (week 14)) was 4.8 (8.64) bpm, the “ECG QTcF, mean (SD) change from augmentation baseline” value ([2]; Visit 13 (week 14)) was −4.9 (11.84) ms and the “Weight, mean (SD) change from augmentation baseline” value ([2]; Visit 13 (week 14)) was −1.2 (2.00) kg. The “DBP, mean (SD) change from augmentation baseline” value [2, 5] was 0.9 (6.61) mmHg, the “Pulse, mean (SD) change from augmentation baseline” value [2, 5] was 3.3 (8.45) bpm and the “SBP, mean (SD) change from augmentation baseline” value [2, 5] was 2.3 (9.04) mmHg. The “ECG and clinical laboratory changes” value [2, 6] was “No clinically significant mean changes”, the “most commonly reported adverse events” value [2, 6] was “dry mouth, headache, decreased appetite, and insomnia” and the “ECG and clinical laboratory changes” value ([2]; adjunctive therapy with escitalopram, listed as VYVANSE) was “No notable ECG changes or changes in clinical laboratory assessments”. For the same compound, the “TEAE: Decreased appetite” value [2, 7] was 6 (6.8) n (%), the “TEAE: Dry mouth” value [2, 7] was 10 (11.4) n (%) and the “TEAE: Headache” value [2, 7] was 10 (11.4) n (%). The “TEAE: Insomnia” value [2, 7] was 4 (4.5) n (%), the “TEAE: Nasopharyngitis” value [2, 7] was 5 (5.7) n (%) and the “Any TEAE” value ([2]; double-blind augmentation phase, randomized safety analysis set (n = 88)) was 53 (60.2) n (%). For the same compound, the “abnormal hepatic enzymes (TEAE)” value ([2]; double-blind treatment) was 1.1%, the “decreased weight (TEAE)” value ([2]; double-blind treatment) was 2.3% and the “nonpsychiatric TEAEs of special interest” value ([2]; double-blind treatment) was 9.1%. The “psychiatric TEAE categorized as psychosis/mania, suicidal, or aggression” value ([2]; double-blind treatment) was “no participant”, the “psychiatric TEAE: abnormal dreams” value ([2]; double-blind treatment) was 1.1% and the “psychiatric TEAE: anxiety” value ([2]; double-blind treatment) was 3.4%. For the same compound, the “psychiatric TEAE: feeling jittery” value ([2]; double-blind treatment) was 2.3%, the “psychiatric TEAE: irritability” value ([2]; double-blind treatment) was 3.4% and the “psychiatric TEAE: somnolence, number of participants” value ([2]; double-blind treatment) was 0. The “psychiatric TEAEs of special interest” value ([2]; double-blind treatment) was 18.2%, the “vital-sign related TEAEs” value ([2]; double-blind treatment) was 5.7% and the suicidal behavior ([2]; during augmentation treatment) was “No participants exhibited suicidal behavior”. The “patients remaining in BMI category at study endpoint” value (“patients remaining in BMI category” below) ([2]; normal (18.5 to <25.0) at augmentation baseline) was 81.8%, the “patients remaining in BMI category” value ([2]; obese (30) at augmentation baseline) was 82.5% and the “patients remaining in BMI category” value ([2]; overweight (25.0 to <30.0) at augmentation baseline) was 76.9%. For the same compound, the “participants reporting at least 1 TEAE” value ([2]; randomized augmentation phase) was 60.2%, the “participants reporting mild TEAEs” value ([2]; randomized augmentation phase) was 18.2% and the “participants reporting moderate TEAEs” value ([2]; randomized augmentation phase) was 30.7%. The “participants reporting severe TEAEs” value ([2]; randomized augmentation phase) was 11.4%, the “study discontinuation due to TEAEs, number of participants” value ([2]; randomized augmentation phase) was 2 and the “incidence of decreased appetite” value ([2]; randomized treatment) was 6.8%. The “incidence of dry mouth” value ([2]; randomized treatment) was 11.4%, the incidence of headache ([2]; randomized treatment) was 11.4% and the incidence of insomnia ([2]; randomized treatment) was 4.5%. The incidence of nasopharyngitis ([2]; randomized treatment) was 5.7%, the “C-SSRS affirmative response (wished dead / not wake up), number of participants” value ([2]; week 9) was 1 and the “C-SSRS affirmative response (wished dead / not wake up), number of participants” value ([2]; week 10) was 2. The “C-SSRS affirmative response (wished dead / not wake up), number of participants” value ([2]; week 14) was 1.
In the case of `O=C1CCc2ccc(OCCCCN3CCN(c4cccc(Cl)c4Cl)CC3)cc2N1` [aripiprazole], the “effect size for MADRS total scores vs placebo” value [3] is listed as 0.35.
